Earlier results as cited in patent US20190231770A1, “COMBINATION COMPOSITIONS COMPRISING FXR AGONISTS FOR TREATING OR PREVENTING A FIBROTIC, CIRRHOTIC DISEASE OR DISORDER” (Novartis AG, priority 2016, published 2019).

Experiments:
[1] = system: caspases 1, 2, 3, 6, 7, 8 and 9
[2] = pre-clinical models of NASH and cold ischemia and reperfusion injury; clinical trials in NASH/NAFLD, portal hypertension and cirrhosis
[3] = patients with chronic liver diseases
[4] = long term administration

## C[C@H](NC(=O)C(=O)Nc1ccccc1C(C)(C)C)C(=O)N[C@@H](CC(=O)O)C(=O)COc1c(F)c(F)cc(F)c1F [emricasan, 3-[2-[(2-tert-butyl-phenylaminooxalyl)-amino]-propionylamino]-4-oxo-5-(2,3,5,6-tetrafluoro-phenoxy)-pentanoic acid]
[1]
  inhibition of caspases 1, 2, 3, 6, 7, 8 and 9: inhibits
[2]
  efficacy: demonstrated efficacy
[3]
  serum aspartate aminotransferase (AST) and alanine aminotransferase (ALT) levels: lower

## CC[C@H]1[C@@H](O)[C@@H]2[C@H](CC[C@]3(C)[C@@H]([C@H](C)CCC(=O)O)CC[C@@H]23)[C@@]2(C)CC[C@@H](O)C[C@@H]12 [obeticholic acid, Obeticholic acid]
[4]
  LDL cholesterol: increased LDL cholesterol
  pruritus: associated with pruritus
